Assay results published in article PMC3198688, “Design and development of a peptide-based adiponectin receptor agonist for cancer treatment” (BMC Biotechnology, 2011).
Like-named read-outs stand apart in the source and are kept apart here. Square brackets hold non-standard residues; d marks the D form. Peptide text beside a SMILES is read from it. Nva = CCC[C@H](N)C(=O)O

What was measured:
[1] = test system: MCF-7 breast cancer cells; test: Growth inhibition (cytostatic) screening in MCF-7 cells; assay type: cell-based, human
Experimental: Biological activity of the peptides was first assessed using MCF-7 breast cancer cells that are known to express AdipoR1 [38]. MCF-7 cell line was obtained from ATCC (Manassas, VA) and routinely grown in DMEM:F12 plus 5% calf serum (Cellgro Mediatech, Manassas, VA) at 37°C, 5% CO2. For screening experiments, MCF-7 cells were plated in 24-well plates at the concentration of 30,000 cells/well. After 12 h of culture in the growth medium, the cells were synchronized in serum-free medium (SFM) (DMEM:F12 supplemented with […] bovine serum albumin, 1 mM FeSO4 and 2 mM L-glutamine) for 24 h, and then shifted back to the full growth medium containing either gAd (Phoenix Secretomics, Burlingame, CA) at 50 ng/mL, individual peptides, or no test compounds. After 24 h, the cells were counted under the microscope with trypan-blue exclusion. Each experiment was performed in triplicate and repeated at least three times.
The effects of the lead active peptide 355 ([…]) on cell proliferation were tested in breast cancer cell lines (MCF-7, MDA-MB-231) and in glioblastoma cells (LN18), all obtained from ATCC and routinely cultured as described previously. The peptide was tested at 10 pM-100 μM concentrations under conditions described above under peptide screening.

[2] = target: T1, AdipoR1 extracellular loops (Homo sapiens, UniProt Q96A54); test: Screening of AdipoR1/peptide binding (ELISA plate, biotin-labeled loop peptides); details: preliminary, qualitative study; biotin-labeled loop fragments; data not shown
T1 construct: biotin-labeled linear synthetic models of the 4 extracellular loops of AdipoR1; made in house; host or cells: chemical solid-phase peptide synthesis (Fmoc), no expression host
Source text: (§1) The 66 unmodified adiponectin array peptides were individually dried down to wells of an ELISA plate, and tested for binding to biotin-labeled linear synthetic models of the 4 extracellular loops of AdipoR1. The receptor/peptide interaction was detected by horseradish-peroxidase conjugated streptavidin.

[3] = test system: AdipoR1 extracellular loops; test: as above; details: preliminary, qualitative study; biotin-labeled loop fragments; data not shown
Source text: as §1

[4] = In vivo toxicity in CBA/J mice; details: for Kidney weight / Liver weight / Spleen weight: CBA/J mice, day 5
Source text: On day 5, the mice were sacrificed by CO2 inhalation. The potential peptide elimination organs: the livers, spleens and kidneys were removed and weighed.

[5] = Peptide stability in whole mouse blood; assay type: in vitro ADME
Experimental: Sixty μg of ADP 355 were dissolved in 100 μL water, and 10 μL aliquots were mixed with 100 μL of freshly drawn mouse blood. After 30 min of incubation at 37°C, blood cells were centrifuged at 10,000 × g. Fifty μL serum was mixed with 50 μL phosphate buffered saline pH 6.8 (PBS), and serum proteins were precipitated by addition of 45 μL aqueous 15% trichloroacetic acid (TCA) for 10 min at 4°C. After centrifugation at 12,000 × g, the supernatant was neutralized with 0.1 M aqueous sodium hydroxide and 0.5 μL of this solution was mixed with 0.5 μL α-cyano-4-hydroxycinnamic acid (4 mg/mL in 60% aqueous acetonitrile containing 0.1% TFA) as matrix on a sample plate. Analysis was performed using a MALDI time-of-flight tandem mass spectrometer (MALDI-TOF/TOF-MS, 4700 proteomic analyzer, Applied Biosystems, Weiterstadt, Germany). Additionally, the neutralized supernatant was loaded on a Jupiter C18 RP-HPLC column (4.6 mm internal diameter, 150 mm length, 5 μm particle size, 30 nm pore size) previously calibrated with known amounts of ADP 355 dissolved in PBS. Absorbance was measured at 214 nm.

Compound: CC[C@H](C)[C@H](NC(=O)[C@@H](N)CC(N)=O)C(=O)N1CCC[C@H]1C(=O)NCC(=O)N[C@@H](CC(C)C)C(=O)N[C@@H](Cc1ccc(O)cc1)C(=O)N[C@@H](Cc1ccc(O)cc1)C(=O)N[C@@H](Cc1ccccc1)C(=O)N[C@@H](C)C(=O)N[C@@H](Cc1ccc(O)cc1)C(N)=O [ADP 25, H-Asn-Ile-Pro-Gly-Leu-Tyr-Tyr-Phe-Ala-Tyr-NH2] (H-NIPGLYYFAY-NH2)
- biological activity in cell growth inhibition assays [1]: fully active
- binding to the first extracellular loop of AdipoR1 [2]: bound the first extracellular loop of AdipoR1
- binding to the other extracellular loops of AdipoR1 [3]: not other loops

Compound: CCC[C@H](NC(=O)[C@@H]1CCCN1C(=O)[C@@H](NC(=O)[C@H](N)CC(N)=O)[C@@H](C)CC)C(=O)N[C@@H](CC(C)C)C(=O)N[C@@H](Cc1ccc(O)cc1)C(=O)N[C@H](CO)C(=O)N[C@@H](Cc1ccccc1)C(=O)N[C@@H](C)C(=O)N[C@H](CO)C(N)=O [ADP 355, H-DAsn-Ile-Pro-Nva-Leu-Tyr-DSer-Phe-Ala-DSer-NH2] (H-[dN]IP[Nva]LY[dS]FA[dS]-NH2)
- Kidney weight ([4]; 5 mg/kg bolus ip): 0.30 g
- Liver weight ([4]; 5 mg/kg bolus ip): 1.02 g
- Spleen weight ([4]; 5 mg/kg bolus ip): 0.07 g
- Kidney weight ([4]; 10 mg/kg bolus ip): 0.29 g
- Liver weight ([4]; 10 mg/kg bolus ip): 1.09 g
- Spleen weight ([4]; 10 mg/kg bolus ip): 0.06 g
- Kidney weight ([4]; 25 mg/kg bolus ip): 0.35 g
- Liver weight ([4]; 25 mg/kg bolus ip): 1.24 g
- Spleen weight ([4]; 25 mg/kg bolus ip): 0.07 g
- Kidney weight ([4]; 50 mg/kg bolus ip): 0.31 g
- Liver weight ([4]; 50 mg/kg bolus ip): 1.07 g
- Spleen weight ([4]; 50 mg/kg bolus ip): 0.07 g
- signs of systemic toxicity (tremor, head tilt, reduced activity and squinting) ([4]; healthy CBA/J mice, bolus ip up to 50 mg/kg, observed for 4 days): no signs of systemic toxicity
- stability in whole mouse blood after 30 min ([5]; freshly drawn whole mouse blood, 37°C, 30 min, 10 μL of 60 μg/100 μL peptide in 100 μL blood, TCA precipitation, MALDI-TOF/TOF-MS and C18 RP-HPLC (214 nm)): without noticeable degradation
- stability in mouse blood or serum ([5]; mouse blood or serum, 37°C (abstract)): at least 30 min

Compound: CC(C)C[C@H](NC(=O)CNC(=O)[C@@H]1CCCN1)C(=O)N[C@@H](Cc1ccc(O)cc1)C(=O)N[C@@H](Cc1ccc(O)cc1)C(=O)N[C@@H](Cc1ccccc1)C(N)=O [Middle 6 of 25, H-Pro-Gly-Leu-Tyr-Tyr-Phe -NH2] (H-PGLYYF-NH2)
- biological activity in cell growth inhibition assays [1]: inactive
- biological activity in cell growth inhibition assays ([1]; listed as fragment 157-162): did not exhibit any biological activity
